Laboratory results published in publication PMC8440871, “LC-Q-Orbitrap-MS/MS Characterization, Antioxidant Activity, and α-Glucosidase-Inhibiting Activity With In Silico Analysis of Extract From Clausena Indica (Datz.) Oliv Fruit Pericarps” (Frontiers in Nutrition, 2021).
≈ marks a conversion by molar mass, not a printed value.

Target: α-Glucosidase from Saccharomyces cerevisiae (Saccharomyces cerevisiae, UniProt P53341)
Assay: α-Glucosidase inhibiting activity (α-GIA), p-NPG substrate
Format: biochemical
Conditions: 0.5 U/ml enzyme, pH 6.8, 37°C, 5 mM p-NPG

α-Glucosidase from Saccharomyces cerevisiae, sequence (P53341 whole entry): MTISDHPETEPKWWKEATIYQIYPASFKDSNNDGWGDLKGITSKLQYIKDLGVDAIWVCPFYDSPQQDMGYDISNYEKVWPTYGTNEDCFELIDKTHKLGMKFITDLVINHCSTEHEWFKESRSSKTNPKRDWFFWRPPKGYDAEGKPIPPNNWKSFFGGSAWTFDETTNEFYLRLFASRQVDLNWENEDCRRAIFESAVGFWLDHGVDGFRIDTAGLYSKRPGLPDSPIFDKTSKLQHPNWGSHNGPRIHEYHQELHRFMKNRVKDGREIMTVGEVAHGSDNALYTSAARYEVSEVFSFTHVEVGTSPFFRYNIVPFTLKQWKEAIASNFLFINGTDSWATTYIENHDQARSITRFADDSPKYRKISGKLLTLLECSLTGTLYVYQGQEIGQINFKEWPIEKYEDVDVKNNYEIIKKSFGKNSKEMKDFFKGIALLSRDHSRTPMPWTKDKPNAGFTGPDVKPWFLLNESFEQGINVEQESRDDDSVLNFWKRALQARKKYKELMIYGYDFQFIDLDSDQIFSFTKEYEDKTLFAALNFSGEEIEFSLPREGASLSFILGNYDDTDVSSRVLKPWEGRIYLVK

## Oc1cc(O)c2c(c1)O[C@H](c1ccc(O)c(O)c1)[C@@H](O)C2 [(+)-Catechin]
  IC50 α-GIA: 374.23 µg/mL (≈ 1290 µM)
